Data set [1] relates to HCT-116. Nature of the data set: Antiproliferative activity against human HCT-116 cells assessed as cell proliferation at 10 uM measured after 3 days incubation followed by incubated 5 hrs with [3H]-thymidine by 3H-thymidine incorporation assay relative to control. Conditions: HCT-116, 72 h, time 3 day, read-out: Activity. The format is functional. A general note: Dividing cells build labelled thymidine or BrdU into new DNA.

The nature of data set [2]: Metabolic stability in Sprague-Dawley rat microsomes assessed as degradation in presence of NADPH at 10 uM measured after 1 hr by HPLC analysis. In kind it is ADME, Microsome.
Data set [3] relates to Bacillus cereus. Nature of the data set: Inhibition of Bacillus cereus phosphatidylcholine specific phospholipase C (PC-PLC BC) assessed as enzyme activity by measuring formation of resorufin fluorophore 10 uM by Amplex-Red based fluorescence assay relative to control. Also noted: scale not given: the % may be the effect or the level left.
Data set [4] has as its system MDA-MB-231. Nature of the data set: Antiproliferative activity against human MDA-MB-231 cells assessed as cell proliferation at 10 uM measured after 3 days incubation followed by incubated 5 hrs with [3H]-thymidine by 3H-thymidine incorporation assay relative to control. The format is functional. The settings on record: MDA-MB-231, 72 h, time 3 day, read-out: Activity.

Data set [5] is described as follows: Metabolic stability in Sprague-Dawley rat microsomes assessed as degradation in presence of NADPH at 10 uM measured up to 60 mins by HPLC analysis. The format is ADME, Microsome.
The test system of data set [6] is HCT-116. The data set is described as follows: Antiproliferative activity against human HCT-116 cells assessed as cell proliferation measured after 3 days incubation followed by incubated 5 hrs with [3H]-thymidine by 3H-thymidine incorporation assay. The format is functional, cell-based.
Data set [7] concerns MDA-MB-231. The data set is described as follows: Antiproliferative activity against human MDA-MB-231 cells assessed as cell proliferation measured after 3 days incubation followed by incubated 5 hrs with [3H]-thymidine by 3H-thymidine incorporation assay. In kind it is functional, cell-based.
A short description of data set [8]: Metabolic stability in Sprague-Dawley rat microsomes assessed as degradation in absence of NADPH at 10 uM measured up to 60 mins by HPLC analysis. In kind it is ADME, Microsome.

We go through 33 compounds from ChEMBL document CHEMBL6182838, “Structure-activity relationship expansion and microsomal stability assessment of the 2-morpholinobenzoic acid scaffold as antiproliferative phosphatidylcholine-specific phospholipase C inhibitors” (RSC Med Chem, 2025).

Each structure is given as a SMILES string.

On to `O=C(O)c1ccc(NCc2ccccc2Cl)cc1N1CCOCC1`, for which the growth at 10 µM in data set [1] was 87.6%; in data set [4], 88%. For the same compound, in data set [2], the Stability result is recorded as “Stable”. In data set [3], the Activity came to 50.8%.

For the compound `O=C(O)c1cc(NCc2ccccc2Cl)ccc1N1CCOCC1`, in data set [5] (Sprague-Dawley, rat microsomes, read-out: Drug degradation), the metabolised at 1 h, 10 µM amounted to 17%.

The term IC50 denotes the point on the concentration scale where inhibition reaches its midpoint. Consider `O=C(NO)c1cc(NCc2ccccc2Cl)ccc1N1CCOCC1`, for which the results for the IC50 in data set [6] and in data set [7] were 4.9 µM and 2.9 µM, respectively. Also, the growth at 10 µM in data set [1] turned out to be 2%; in data set [4], 11.7%.

With `CCOc1ccc2ccc(=O)oc2c1` [ETHOXYCOUMARIN], the Stability result in data set [5] (microsomes, 1 h, 10 µM) is reported as “Unstable”; in data set [8] (microsomes, 1 h, 10 µM) it was “Stable”.

Turning to `COC(=O)c1cc(NCc2ccc(Br)cc2)ccc1C1CCOCC1`, the growth at 10 µM was 61.2% in data set [1] and 79.6% in data set [4]. In addition, the Activity in data set [3] was determined as 110%.

For the compound `O=C(NO)c1cc(NCc2cccc(Br)c2)ccc1N1CCOCC1`, the IC50 in data set [6] came out at 5.8 µM; in data set [7] it was 3.3 µM. The growth at 10 µM in data set [1] was 1.9%.

In the case of `O=C(O)c1ccc(NCc2cccc(Br)c2)cc1N1CCOCC1`, the growth at 10 µM came out at 101% in data set [1] and 104% in data set [4]. Moreover, in data set [3], the Activity was determined as 95.8%.

For the compound `O=C(O)c1cc(NCc2ccccc2Cl)ccc1C1CCOCC1`, the growth at 10 µM was found to be 101% in data set [1] and 111% in data set [4]. In data set [2], the Stability entry is “Stable”. For the same compound, in data set [3], the Activity is 107%.

As for `COC(=O)c1ccc(NCc2ccc(Cl)cc2)cc1N1CCOCC1`, the growth at 10 µM in data set [1] is 43.8%; in data set [4], 70.3%. The Activity in data set [3] came out at 41.3%.

`O=C(O)c1cc(NCc2ccc(Br)cc2)ccc1C1CCOCC1`: the growth at 10 µM amounted to 104% in data set [1] and 102% in data set [4]. Moreover, the Activity in data set [3] was 105%.

On to `COC(=O)c1cc(NCc2ccc(OC)cc2)ccc1C1CCOCC1`, for which the growth at 10 µM in data set [1] was found to be 54.5%; in data set [4], 71.2%. For the same compound, the Activity in data set [3] turned out to be 75.4%.

`O=C(NO)c1ccc(NCc2ccc(Cl)cc2)cc1N1CCOCC1`: the growth at 10 µM was found to be 57.4% in data set [1] and 45.5% in data set [4]. Further, the Activity in data set [3] came out at 54.4%.

Consider `COc1cccc(CNc2ccc(C3CCOCC3)c(C(=O)O)c2)c1`, for which the figures for the growth at 10 µM in data set [1] and in data set [4] were 101% and 104%, respectively. For the same compound, the Activity in data set [3] turned out to be 106%.

Turning to `O=C(O)c1cc(NCc2ccc(Cl)cc2)ccc1C1CCOCC1`, the growth at 10 µM in data set [1] is 101%; in data set [4], 115%. In data set [3], the Activity was found to be 112%.

On to `COC(=O)c1ccc(NCc2cccc(OC)c2)cc1N1CCOCC1`, for which the growth at 10 µM in data set [1] is 48.5%; in data set [4], 80.6%. For the same compound, the Activity in data set [3] is 109%.

As to `O=C(NO)c1cc(NCc2cccc(F)c2)ccc1C1CCOCC1`, the growth at 10 µM worked out at 94.4% in data set [1] and 84.4% in data set [4]. Also, the Activity in data set [3] came out at 88.2%.

For the compound `COC(=O)c1ccc(NCc2cccc(Cl)c2)cc1N1CCOCC1`, the growth at 10 µM in data set [1] was 44.3%; in data set [4], 68.9%. Further, the Activity in data set [3] turned out to be 55.8%.

Turning to `COC(=O)c1cc(NCc2ccccc2F)ccc1C1CCOCC1`, the values for the growth at 10 µM in data set [1] and in data set [4] were 9.5% and 17.6%, respectively. In addition, the Activity in data set [3] stood at 62.3%.

For the compound `CN(Cc1ccccc1Cl)c1ccc(N2CCOCC2)c(C(=O)NO)c1`, the IC50 in data set [6] is 3.4 µM; in data set [7], 1.1 µM. In addition, the growth at 10 µM in data set [1] was found to be 4.8%; in data set [4], 4.3%.

With `COC(=O)c1ccc(NCc2cccc(F)c2)cc1N1CCOCC1`, the growth at 10 µM in data set [1] was found to be 71%; in data set [4] it was 85.9%. Besides, in data set [3], the Activity came out at 78.9%.

For `O=C(NO)c1cc(NCc2ccccc2F)ccc1C1CCOCC1`, the growth at 10 µM was 98.6% in data set [1] and 88% in data set [4]. Further, the Activity in data set [3] was found to be 94%.

`O=C(NO)c1ccc(NCc2cccc(Br)c2)cc1N1CCOCC1`: the growth at 10 µM in data set [1] was found to be 32.3%; in data set [4], 25.3%. Moreover, the Activity in data set [3] was 45.3%.

`O=C(O)c1cc(NCc2cccc(F)c2)ccc1C1CCOCC1`: the figures for the growth at 10 µM in data set [1] and in data set [4] were 103% and 104%, respectively. Further, the Activity in data set [3] came out at 36.2%.

For `COC(=O)c1cc(NCc2ccc(F)cc2)ccc1C1CCOCC1`, the growth at 10 µM in data set [1] is 25.3%; in data set [4], 36%. In data set [3], the Activity is 52%.

In the case of `CN(Cc1ccccc1Cl)c1ccc(N2CCOCC2)c(C(=O)O)c1`, the growth at 10 µM in data set [1] was 87.8%; in data set [4] it was 95.5%. Further, in data set [8] (Sprague-Dawley, rat microsomes), the % remaining at 1 h, 10 µM was found to be 94%.

For the compound `O=C(O)c1cc(NCc2ccccc2F)ccc1C1CCOCC1`, the values for the growth at 10 µM in data set [1] and in data set [4] were 104% and 113%, respectively. The Activity in data set [3] amounted to 43.4%.

As to `O=C(NO)c1cc(NCc2ccccc2Cl)ccc1C1CCOCC1`, the growth at 10 µM worked out at 86.7% in data set [1] and 86.8% in data set [4]. In data set [3], the Activity came to 82.8%.

For `COc1ccccc1CNc1ccc(C2CCOCC2)c(C(=O)O)c1`, the results for the growth at 10 µM in data set [1] and in data set [4] were 106% and 100%, respectively. Moreover, the Activity in data set [3] amounted to 108%.

With `O=C(O)c1ccc(NCc2cccc(Cl)c2)cc1N1CCOCC1`, the growth at 10 µM in data set [1] stood at 88.6%; in data set [4] it was 87.2%. Moreover, the Activity in data set [3] was 33.1%.

For the compound `O=C(O)c1ccc(NCc2ccccc2F)cc1N1CCOCC1`, the growth at 10 µM amounted to 95.2% in data set [1] and 96.4% in data set [4]. The Activity in data set [3] came to 82.2%.

As for `O=C(O)c1cc(NCc2ccccc2)ccc1C1CCOCC1`, the results for the growth at 10 µM in data set [1] and in data set [4] were 99.8% and 107%, respectively. The Activity in data set [3] was determined as 54%.

`O=C(NO)c1ccc(NCc2ccc(F)cc2)cc1N1CCOCC1`: the growth at 10 µM stood at 91.4% in data set [1] and 81.6% in data set [4]. Besides, the Activity in data set [3] amounted to 49.2%.

Regarding `O=C(O)c1ccc(NCc2ccc(Br)cc2)cc1N1CCOCC1`, the figures for the growth at 10 µM in data set [1] and in data set [4] were 101% and 99.7%, respectively. Moreover, the Activity in data set [3] stood at 99.1%.
